In data set [1] the test system is Plasma. Format: functional, Homo sapiens.
Description: Anticoagulant activity in human plasma assessed as concentration required to double activated partial thromboplastin time
Data set [2] deals with T1, Coagulation factor X (Homo sapiens, UniProt P00742).
In data set [3] the target is T2, Trypsin (Homo sapiens, UniProt P07477+P07478+P35030). Format: protein assay.
Description: Inhibition of trypsin (unknown origin)
Data set [4] is described as follows: in vivo. As to conditions: dog, po, 1 mg/kg.
Description: Half life in dog at 1 mg/kg, po
The target of data set [5] is T2, Trypsin. Format: protein assay. The source holds these as a separate data set.
Description: Inhibition of human trypsin assessed as release of p-nitroanilide from chromogenic substrate
A short description of data set [6]: physchem. As to conditions: buffer, pH 7.4.
Description: Aqueous solubility at pH 7.4
Data set [7] addresses T3, Prothrombin (Homo sapiens, UniProt P00734).
Description: Binding affinity to thrombin (unknown origin)
For data set [8], the target named is T3, Prothrombin. This is another data set of the same source.
In data set [9] the target is T4, Coagulation factor VII/tissue factor (Homo sapiens, UniProt P08709). The class given is protein-complex assay.
For data set [10], the target named is T4, Coagulation factor VII/tissue factor. The class given is protein-complex assay. The source holds these as a separate data set.
Data set [11] deals with T1, Coagulation factor X. The source holds these as a separate data set.
The target of data set [12] is T3, Prothrombin. This is another data set of the same source.
The conditions of data set [13]: cynomolgus monkey, plasma, iv, 0.4 mg/kg.
Description: Plasma concentration in cynomolgus monkey at 400 ug/kg/min, iv
For data set [14] the following is noted: cynomolgus monkey, plasma, iv, 0.06 mg/kg.
Description: Plasma concentration in cynomolgus monkey at 60 ug/kg/min, iv

In brackets after ≈: the same amount, converted by molar mass.

T4 sequence (P08709 61-212 limits assumed): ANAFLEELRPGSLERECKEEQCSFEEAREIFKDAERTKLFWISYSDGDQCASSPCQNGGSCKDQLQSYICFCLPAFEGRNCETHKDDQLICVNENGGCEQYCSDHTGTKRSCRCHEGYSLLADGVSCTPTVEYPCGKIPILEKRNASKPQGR
T4 sequence (P08709 213-466 limits assumed): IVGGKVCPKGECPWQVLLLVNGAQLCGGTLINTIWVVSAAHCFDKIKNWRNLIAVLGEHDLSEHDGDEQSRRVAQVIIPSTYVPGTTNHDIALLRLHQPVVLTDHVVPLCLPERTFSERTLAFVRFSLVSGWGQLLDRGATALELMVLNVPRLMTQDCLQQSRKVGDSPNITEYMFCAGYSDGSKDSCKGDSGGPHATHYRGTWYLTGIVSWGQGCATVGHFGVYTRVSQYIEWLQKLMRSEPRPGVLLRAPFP
T4 sequence (P13726 33-295 partner limits assumed): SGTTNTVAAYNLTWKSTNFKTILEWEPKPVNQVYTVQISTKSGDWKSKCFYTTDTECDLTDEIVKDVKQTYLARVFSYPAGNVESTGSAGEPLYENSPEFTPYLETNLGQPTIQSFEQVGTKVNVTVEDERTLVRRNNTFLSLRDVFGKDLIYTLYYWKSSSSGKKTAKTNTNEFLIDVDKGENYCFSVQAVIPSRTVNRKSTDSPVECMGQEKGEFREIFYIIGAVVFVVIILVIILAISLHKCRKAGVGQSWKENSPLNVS
T1 sequence (P00742 41-179 limits assumed): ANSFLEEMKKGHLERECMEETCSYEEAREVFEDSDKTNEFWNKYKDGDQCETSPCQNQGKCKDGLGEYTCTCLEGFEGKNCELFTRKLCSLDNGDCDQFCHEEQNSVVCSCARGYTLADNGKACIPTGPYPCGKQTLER
T1 sequence (P00742 235-488 limits assumed): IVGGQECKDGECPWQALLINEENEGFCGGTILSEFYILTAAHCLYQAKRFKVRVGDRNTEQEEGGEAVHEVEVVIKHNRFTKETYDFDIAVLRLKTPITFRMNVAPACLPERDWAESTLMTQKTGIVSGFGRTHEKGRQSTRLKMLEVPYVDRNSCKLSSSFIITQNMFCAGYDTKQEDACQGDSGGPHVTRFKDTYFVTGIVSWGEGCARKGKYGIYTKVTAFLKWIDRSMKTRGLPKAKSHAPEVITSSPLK

As for `O=C(Cn1c(Cl)cnc(NCC(F)(F)c2cccc[n+]2[O-])c1=O)NCc1cc(Cl)ccc1-n1cnnn1`, the 2aPTT in data set [1] is reported as 130 nM.

With `O=C(Cn1c(Cl)cnc(NCC(F)(F)c2ccccn2)c1=O)NCc1cc(Cl)ccc1-n1cncn1`, the 2aPTT in data set [1] was 170 nM. In data set [2], `CC(C)Nc1ccc(-c2cccc(N)c2)c(CC(=O)NCc2ccc(C(=N)N)cc2)c1F` returned an IC50 of more than 30 µM.

On to `Cc1cnc(NCC(F)(F)c2ccccn2)c(=O)n1CC(=O)NCc1ncccc1F`, for which, in [1], the 2aPTT is 670 nM. Moreover, the Ki in [3] worked out at 252 µM. In turn, `N#Cc1cnc(NCC(F)(F)c2ccccn2)c(=O)n1CC(=O)NCc1ncccc1F` displayed a 2aPTT in [1] of 410 nM. In data set [3], the Ki stood at 213 µM. Moreover, the half-life in data set [4] was 6.6 to 9.7 h. `Cc1nc(N)ccc1CNC(=O)Cn1c(C)cnc(NCC(F)(F)c2ccccn2)c1=O` had a 2aPTT in [1] of 200 nM. In [3], the Ki is 0.8 µM. `Cc1cnc(NCCc2ccccc2)c(=O)n1CC(=O)NCc1cc2cc[nH]c2cn1`: the Ki in data set [5] turned out to be 95 µM. In [1], `O=C(Cn1c(Cl)cnc(NCC(F)(F)c2cccc[n+]2[O-])c1=O)NCc1ccccc1F` had a 2aPTT of 400 nM.

On to `O=C(Cn1c(Cl)cnc(NCC(F)(F)c2cccc[n+]2[O-])c1=O)NCc1ncccc1Cl`, for which the 2aPTT in data set [1] is recorded as 470 nM. As for `O=C(Cn1c(Cl)cnc(NCC(F)(F)c2cccc[n+]2[O-])c1=O)NCc1ncccc1F`, the 2aPTT in data set [1] was 540 nM. Also, the concentration in solution in data set [6] (solubility) came to 44 µg/mL (≈ 93.9 µM). In the case of `O=C(Cn1c(Cl)cnc(NCC(F)(F)c2ccccn2)c1=O)NCc1cc(Cl)ccc1-n1cnnn1`, the 2aPTT in data set [1] is reported as 180 nM. The same molecule yielded a Ki in data set [7] of 1.4 to 1.5 pM.

In data set [1], `O=C(Cn1c(Cl)cnc(NCC(F)(F)c2cccc[n+]2[O-])c1=O)NCc1cc(Cl)ccc1-n1cncn1` gave a 2aPTT of 200 nM.

Molecule `Cc1cnc(NCCc2ccccn2)c(=O)n1CC(=O)NCc1cc2cc[nH]c2cn1` registered a Ki in [5] of 200 µM. Still for that read-out and setting: to `Cc1cnc(NCCc2ccccn2)c(=O)n1CC(=O)NCc1ccc2[nH]ccc2c1` belongs 290 µM. In the case of `N=C(N)NCCC[C@H](NC(=O)[C@H](Cc1cccnc1)NC(=O)[C@H](Cc1ccccc1)NS(=O)(=O)c1ccccc1)C(=O)c1nccs1`, the IC50 in data set [8] worked out at 100 µM; in [9], 0.2 µM. In the case of `O=c1oc(-c2ccccc2F)nc2cnccc12`, the results for the IC50 in [10] and in data set [11] were 2.6 µM and 90 µM, respectively. Regarding `Cc1ccccc1-c1nc2c(cnn2C)c(=O)o1`, the IC50 was 18 µM in data set [10], more than 200 µM in [11] and 129 µM in data set [12]. For `O=c1oc(-c2ccccc2F)nc2ncccc12` the same measures were 2.8 µM, 32 µM and 14.4 µM. The corresponding values for `O=c1oc(-c2c(F)cccc2F)nc2cc(C(F)(F)F)ccc12` are 1.4 µM, 174 µM and 134 µM. Regarding `O=c1oc(-c2c(F)cccc2F)nc2cnccc12`, the IC50 was 1.3 µM in data set [10], more than 200 µM in data set [11] and more than 200 µM in data set [12]. In data set [10], `O=c1oc(-c2ccccc2F)nc2nccnc12` came in with an IC50 of more than 200 µM. `O=c1oc(-c2c(F)cccc2F)nc2cc([N+](=O)[O-])ccc12`: the IC50 in [10] is 0.82 µM; in data set [11], 112 µM; in data set [12], more than 200 µM.

On to `CCSc1ncc2c(=O)oc(-c3ccccc3F)nc2n1`, for which the IC50 in data set [10] was 15 µM; in data set [11], more than 200 µM; in data set [12], more than 200 µM. Regarding `Cc1cnc(NCCc2ccccc2)c(=O)n1CC(=O)NCc1ccc2[nH]ccc2c1`, the inhibition constant Ki in data set [5] was more than 100 µM. In turn, `CC(C)Nc1nc(Cl)c(-c2cc(N)cc(C(=O)O)c2)n(CC(=O)NCc2ccc(C(=N)N)cc2)c1=O` displayed an IC50 in [2] of more than 100 µM. The molecule also had a Cp in [13] of 107 µg/mL. The molecule `O=C(Cn1c(Cl)cnc(NCC(F)(F)c2ccccn2)c1=O)NCc1ncccc1F` [DPOC-4088] yielded a 2aPTT in [1] of 780 nM. In data set [3], this molecule had a Ki of 202 µM. Moreover, in data set [4], the half-life fell in the range of 6.6 to 9.7 h. For the same molecule, in data set [6], the solubility stood at 11 µg/mL (≈ 24.3 µM).

In data set [5], `Cc1nc(N)ccc1CNC(=O)Cn1c(C)ccc(NS(=O)(=O)Cc2ccccc2)c1=O` [L-374087] came in with a Ki of 3.2 µM. Consider `Cc1nc(N)ccc1CNC(=O)Cn1c(C)cnc(NCCc2ccccc2)c1=O` [L-375378], for which the Cp in data set [14] was 3 µg/mL.

(Values after ChEMBL document CHEMBL4196003, “The selectivity and bioavailability improvement of novel oral anticoagulants: An overview” (Eur J Med Chem, 2018).)
